From paper PMC5025651, “Reprofiled anthelmintics abate hypervirulent stationary-phase Clostridium difficile” (Scientific Reports, 2016) come the findings set out here.

The test system of test [1] is C. difficile strain 630 (CD630, ATCC BAA-1382-FZ, ribotype 012). Nature of the test: MIC by broth microdilution. The class given is cell-based, Clostridium difficile. Particulars: for MIC: Clostridioides difficile, ATCCBAA1382, BHIS broth, anaerobic, 20–24 h, n = 2; for in vitro activity against CD630 (in words): growth inhibition, MIC assay. A general note: Broth dilution looks for growth in wells or tubes with falling amounts of substance.

Test [2] relates to C. difficile strain 4118 (CD4118, ATCC BAA-1870, ribotype 027). Nature of the test: MIC by broth microdilution. The format is cell-based, Clostridium difficile. Particulars: for MIC: Clostridioides difficile, ATCCBAA1870, BHIS broth, anaerobic, 20–24 h, n = 2, read-out: MIC C. difficile 4118; for in vitro activity against CD4118 (in words): growth inhibition, MIC assay.
The test system of test [3] is C. clostridioforme ATCC 25537. Nature of the test: MIC by broth microdilution. The format is cell-based, Clostridium clostridioforme. The following applies: Clostridium, ATCC25537; C. clostridioforme ATCC 25537; BHIS, anaerobic; duplicate; read-out: MIC.
Test [4] deals with S. aureus RN4220. As to the kind of experiment: MIC by broth microdilution. The class given is cell-based. Particulars: Staphylococcus aureus, CAMHB, aerobic, duplicate.
The subject of test [5] is C. sporogenes ATCC 15579. Nature of the test: MIC by broth microdilution. The class given is cell-based. Particulars: Clostridium sporogenes, ATCC15579, BHIS, anaerobic, duplicate.
In test [6] the test system is B. subtilis ATCC 6051. As to the kind of experiment: MIC by broth microdilution. The class given is cell-based. The following applies: Bacillus subtilis, ATCC6051; B. subtilis ATCC 6051; CAMHB, aerobic; duplicate; read-out: MIC.
Test [7] concerns B. longum subsp. longum Strain 44B. Nature of the test: MIC by broth microdilution. The class given is cell-based. Particulars: Bifidobacterium longum; B. longum subsp. longum 44B; LSM broth, anaerobic; duplicate; read-out: MIC.
Test [8] has as its system L. johnsonii Strain 135-1-CHN. Nature of the test: MIC by broth microdilution. The class given is cell-based. The following applies: Lactobacillus johnsonii, STRAIN1351CHN; L. johnsonii 135-1-CHN; CAMHB with 5% laked horse blood, ~48 h; duplicate; read-out: MIC.
Test [9] relates to B. thetaiotaomicron ATCC 29148. Nature of the test: microbe, parasite or virus in culture. The class given is cell-based. The following applies: Bacteroides thetaiotaomicron, ATCC29148; B. thetaiotaomicron ATCC 29148; supplemented Brucella broth, anaerobic; duplicate; read-out: MIC.
Test [10] relates to P. nigrescens ATCC 33563. As to the kind of experiment: MIC by broth microdilution. The class given is cell-based. The following applies: Prevotella nigrescens, ATCC33563; P. nigrescens ATCC 33563; supplemented Brucella broth, anaerobic; duplicate; read-out: MIC.
Test [11] deals with B. fragilis Strain CL05T00C42. As to the kind of experiment: MIC by broth microdilution. The class given is cell-based. The following applies: Bacteroides fragilis; B. fragilis CL05T00C42; supplemented Brucella broth, anaerobic; duplicate; read-out: MIC.
Test [12] concerns B. breve Strain EX336960VC19. Nature of the test: MIC by broth microdilution. The class given is cell-based. The following applies: Bifidobacterium breve; B. breve EX336960VC19; LSM broth, anaerobic; duplicate; read-out: MIC.
Test [13] deals with L. reuteri Strain CF48-3A. As to the kind of experiment: MIC by broth microdilution. The format is cell-based, Lactobacillus reuteri. Particulars: Limosilactobacillus reuteri; L. reuteri CF48-3A; CAMHB with 5% laked horse blood, ~48 h; duplicate; read-out: MIC.
Test [14] relates to P. distasonis ATCC 8503. As to the kind of experiment: MIC by broth microdilution. The following applies: Parabacteroides distasonis, ATCC8503; P. distasonis ATCC 8503; supplemented Brucella broth, anaerobic; duplicate; read-out: MIC. The format is cell-based.
The subject of test [15] is P. aeruginosa PAO1. As to the kind of experiment: MIC by broth microdilution. The format is cell-based. The following applies: Pseudomonas aeruginosa; P. aeruginosa PAO1; CAMHB, aerobic; duplicate; read-out: MIC.
Test [16] has as its system A. baumannii M2. As to the kind of experiment: MIC by broth microdilution. The following applies: Acinetobacter baumannii; A. baumannii M2; CAMHB, aerobic; duplicate; read-out: MIC. The format is cell-based.
Test [17] concerns S. epidermidis 1457. Nature of the test: MIC by broth microdilution. The format is cell-based. The following applies: Staphylococcus epidermidis; S. epidermidis 1457; CAMHB, aerobic; duplicate; read-out: MIC.
Test [18] has as its system L. plantarum ATCC 8014. As to the kind of experiment: MIC by broth microdilution. The format is cell-based. The following applies: Lactiplantibacillus plantarum, ATCC8014; L. plantarum ATCC 8014; CAMHB with 5% laked horse blood, ~48 h; duplicate; read-out: MIC.

Converted amounts (≈) assume the structure as drawn.

With `O=C(Nc1ccc(Oc2ccc(Cl)cc2)cc1)c1cc(I)cc(I)c1O` [Compound 5g], in [1], the MIC turned out to be 0.13 µg/mL (≈ 0.22 µM) and the “in vitro activity against CD630 (in words)” value is on record as “exhibited in vitro activity”. In test [2], the MIC worked out at 0.25 µg/mL (≈ 0.423 µM) and the “in vitro activity against CD4118 (in words)” value is listed as “exhibited in vitro activity”.
Take `O=C(Nc1ccc(Oc2ccccc2)cc1)c1cc(I)cc(I)c1` [Compound 5c]: in [1], the MIC is more than 32 µg/mL and the “in vitro activity against CD630 (in words)” value was “inactive”. In test [2], the MIC is more than 32 µg/mL and the “in vitro activity against CD4118 (in words)” value is “inactive”.
Consider `O=C(Nc1ccc(I)cc1)c1cc(I)cc(I)c1O` [Compound 7d], for which the MIC was found to be 0.13 µg/mL (≈ 0.22 µM) in test [1] and 0.25 µg/mL (≈ 0.423 µM) in test [2].
On to `O=C(Nc1ccc(-c2ccccc2)cc1)c1cc(I)cc(I)c1O` [Compound 7a], for which the results for the MIC in [1] and in [2] were 0.5 µg/mL (≈ 0.924 µM) and 1 µg/mL (≈ 1.85 µM), respectively.
Turning to `COc1c(I)cc(I)cc1C(=O)Nc1ccc2ccccc2c1` [Compound 6b], in test [1], the MIC is more than 32 µg/mL and the “in vitro activity against CD630 (in words)” value is “inactive”. In test [2], the MIC is more than 32 µg/mL and the “in vitro activity against CD4118 (in words)” value is “inactive”.
In the case of `O=C(NCCc1ccc(Cl)cc1Cl)c1cc(I)cc(I)c1O` [Compound 7i], the MIC was found to be 0.25 µg/mL (≈ 0.445 µM) in test [1] and 0.5 µg/mL (≈ 0.89 µM) in test [2].
For `O=C(Nc1ccccc1Cl)c1cc(I)cc(I)c1O` [Compound 7c], the MIC in test [1] and in [2] was 8 µg/mL (≈ 16 µM) each time.
With `O=C(NCCc1ccccc1Cl)c1cc(I)cc(I)c1O` [Compound 7f], the MIC in [1] and in test [2] was 2 µg/mL (≈ 3.79 µM) each time.
Consider `COc1c(I)cc(I)cc1C(=O)Nc1ccc(Oc2ccc(Cl)cc2)cc1` [Compound 5h], for which, in test [1], the MIC is more than 32 µg/mL and the “in vitro activity against CD630 (in words)” value is “inactive”. Moreover, in [2], the MIC is more than 32 µg/mL and the “in vitro activity against CD4118 (in words)” value is “inactive”.
Turning to `O=C(Nc1ccc(Oc2ccc(F)cc2)cc1)c1cc(I)cc(I)c1O` [Compound 5e], in test [1], the MIC was 0.13 µg/mL (≈ 0.226 µM) and the “in vitro activity against CD630 (in words)” value is on record as “exhibited in vitro activity”. Besides, in test [2], the MIC amounted to 0.13 µg/mL (≈ 0.226 µM) and the “in vitro activity against CD4118 (in words)” value is “exhibited in vitro activity”.
As for `CN(C(=O)c1cc(I)cc(I)c1O)c1ccc(Oc2ccccc2)cc1` [Compound 5d], in [1], the MIC was more than 32 µg/mL and the “in vitro activity against CD630 (in words)” value was “inactive”. In test [2], the MIC was more than 32 µg/mL and the “in vitro activity against CD4118 (in words)” value is “inactive”.
For the compound `Cc1ccc(Oc2ccc(NC(=O)c3cc(I)cc(I)c3O)cc2)cc1` [Compound 5f], in [1], the MIC came out at 0.13 µg/mL (≈ 0.228 µM) and the “in vitro activity against CD630 (in words)” value is “exhibited in vitro activity”. Also, in [2], the MIC was 0.25 µg/mL (≈ 0.438 µM) and the “in vitro activity against CD4118 (in words)” value is on record as “exhibited in vitro activity”.
On to `O=C(Nc1ccc(Oc2ccccc2)cc1)c1cc(I)cc(I)c1O` [Compound 5a], for which, in test [1], the MIC was 0.5 µg/mL (≈ 0.897 µM) and the “in vitro activity against CD630 (in words)” value is “exhibited in vitro activity”. Besides, in test [2], the MIC was found to be 1 µg/mL (≈ 1.79 µM) and the “in vitro activity against CD4118 (in words)” value is on record as “exhibited in vitro activity”.
Consider `O=C(Nc1ccc2ccccc2c1)c1cc(I)cc(I)c1` [Compound 6c], for which, in [1], the MIC is more than 32 µg/mL and the “in vitro activity against CD630 (in words)” value was “inactive”. In [2], the MIC was more than 32 µg/mL and the “in vitro activity against CD4118 (in words)” value was “inactive”.
`COc1c(I)cc(I)cc1C(=O)Nc1ccc(Oc2ccccc2)cc1` [Compound 5b]: in test [1], the MIC was more than 32 µg/mL and the “in vitro activity against CD630 (in words)” value is “inactive”. In addition, in test [2], the MIC was more than 32 µg/mL and the “in vitro activity against CD4118 (in words)” value is “inactive”.
Take `O=C(NCCc1ccc(Cl)cc1)c1cc(I)cc(I)c1O` [Compound 7h]: the values for the MIC in test [1] and in [2] were 0.25 µg/mL (≈ 0.474 µM) and 0.5 µg/mL (≈ 0.948 µM), respectively.
With `O=C(NCCc1cccc(Cl)c1)c1cc(I)cc(I)c1O` [Compound 7g], the MIC in test [1] and in test [2] was 1 µg/mL (≈ 1.9 µM) each time.
Take `O=C(Nc1ccc2c(c1)Cc1ccccc1-2)c1cc(I)cc(I)c1O` [Compound 7e, N-(9H-Fluoren-2-yl)-2-hydroxy-3,5-diiodobenzamide]: the MIC turned out to be 0.25 µg/mL (≈ 0.452 µM) in test [1] and 0.5 µg/mL (≈ 0.904 µM) in test [2].
As for `O=C(Nc1ccc(Cl)cc1)c1cc(I)cc(I)c1O` [Compound 7b], the MIC is 0.25 µg/mL (≈ 0.501 µM) in test [1]; 16 µg/mL (≈ 32 µM) in test [3]; 0.06 µg/mL (≈ 0.12 µM) in test [4]; 0.5 µg/mL (≈ 1 µM) in test [2]; 16 µg/mL (≈ 32 µM) in test [5]; 0.06 µg/mL (≈ 0.12 µM) in [6]. In addition, the MIC in test [7] is 8 µg/mL (≈ 16 µM); in [8] it was 32 µg/mL (≈ 64.1 µM); in [9], more than 32 µg/mL; in test [10], 4 µg/mL (≈ 8.01 µM); in [11], 32 µg/mL (≈ 64.1 µM); in [12] it was 8 µg/mL (≈ 16 µM). The MIC was 32 µg/mL (≈ 64.1 µM) in test [13]; 8 µg/mL (≈ 16 µM) in test [14]; more than 32 µg/mL in [15]; 32 µg/mL (≈ 64.1 µM) in [16]; not above 0.03 µg/mL in test [17]; 32 µg/mL (≈ 64.1 µM) in test [18].
For `O=C(Nc1ccc2ccccc2c1)c1cc(I)cc(I)c1O` [Compound 6a], the MIC in test [1] was 0.5 µg/mL (≈ 0.971 µM); in test [3], 4 µg/mL (≈ 7.77 µM); in test [4] it was 0.25 µg/mL (≈ 0.485 µM); in test [2] it was 0.5 µg/mL (≈ 0.971 µM); in [5], 8 µg/mL (≈ 15.5 µM); in test [6], 0.06 µg/mL (≈ 0.116 µM). For the same compound, the MIC in test [7] was 32 µg/mL (≈ 62.1 µM); in test [8], 32 µg/mL (≈ 62.1 µM); in test [9], more than 32 µg/mL; in test [10], 8 µg/mL (≈ 15.5 µM); in test [11], 32 µg/mL (≈ 62.1 µM); in [12] it was 32 µg/mL (≈ 62.1 µM). Also, the MIC in test [13] was 32 µg/mL (≈ 62.1 µM); in [14] it was 16 µg/mL (≈ 31.1 µM); in test [15] it was more than 32 µg/mL; in [16], more than 32 µg/mL; in [17], 0.06 µg/mL (≈ 0.116 µM); in test [18], more than 32 µg/mL. Also, in [1], the “in vitro activity against CD630 (in words)” value was “exhibited in vitro activity”. In addition, the “in vitro activity against CD4118 (in words)” value in test [2] is given as “exhibited in vitro activity”.
